Here are results for one molecule from patent publication US20210322346A1, “CHEMICALLY MODIFIED CURCUMINS FOR USE IN THE PRODUCTION OF LIPOXINS” (The Research Foundation for The State University of New York, priority 2015, published 2021).

Series [1] deals with S. aureus-infected hTG SP-B mice. As to the kind of experiment: Mortality in S. aureus pneumonia in hTG SP-B mice. It is filed as in vivo, mouse. The conditions noted are these: 50 mg/kg daily. The procedure:
S. aureus-induced pneumonia model: Pilot experiments were performed to establish the S. aureus Xen36 pneumonia model using different doses of bacteria to infect mouse lung. […] Therefore, direct intratracheal inoculation of bioluminescent S. aureus Xen36 at a dose of 5×10^8/50 μl was used to infect mice in all subsequent experiment (Farnsworth, C. W. et al. 2015; Schriever, M. P. et al. 2011). In brief, hTG SP-B mice between 8 and 12 weeks old were anesthetized using intraperitoneal ketamine/xylazine (90 mg/kg ketamine, 10 mg/kg xylazine) injection. A 0.3-cm mid-line neck incision was made to expose the trachea. In the sham group, 50 μl of sterile vehicle was injected into the trachea by the same method. After infection, bio-luminescence signal was observed and quantified by an in vivo imaging system. (Xenogen-200 series, Caliper Life Sciences, Hopkinton, Mass.). Buprenorphine (0.05 mg/kg body weight) was injected for postoperative analgesia every 8-12 hrs. Mice were returned to their cages in a temperature-controlled room. (22. ° C.) with 12-h light and dark cycles and monitored every 4 h. Mice were anesthetized with isoflurane (2%) at several time points after infection (0 h, 12 h, 24 h, 28 h, 32 h, and 48 h) (Pribaz, J. R. et al, 2012; Guo, Y, et al, 2013). At 48 h after S. aureus infection, nice were sacrificed under anesthesia. […]

For series [2] the following is noted: cited from earlier work.
Series [3] has as its system IL-1β relative to lipoxin A4. As to the kind of experiment: Experiment B: IL-1β/lipoxin A4 ratio in LPS-exposed macrophages in culture. The series is classed as cell-based, rat. Conditions: LPS (100 ng/ml)-exposed macrophages, CMC2.24 5 μM. The protocol:
(§1) In the second experiment, macrophages (chronic inflammatory cells), were collected and counted from the peritoneal washes of the six non-diabetic control rats. These cells were then pooled and incubated under different in vitro conditions including: group 1, control Møs; group 2, Møs incubated with lipopolysaccharide (LPS)/endotoxin at 100 ng/ml, final concentration, added to the culture media; group 3, Møs exposed to LPS but treated with CMC2.24 at a final concentration of 2 μM; and group 4, like group 3 except that CMC2.24 was increased to 5 μM (note that in this cell culture experiment, sufficient IL-6 was secreted by the LPS-exposed Møs unlike Experiment A, above).

The conditions of series [4]: rats with pathologically excessive MMPs, doses as high as 500 mg/kg of body weight; cited from earlier work.
A short description of the next series: Solubility. The series is classed as physicochemical.
Series [5] concerns IL-6 relative to lipoxin A4. Put plainly: Experiment B: IL-6/lipoxin A4 ratio in LPS-exposed macrophages in culture. It is filed as cell-based, rat. Conditions: LPS (100 ng/ml)-exposed macrophages, CMC2.24 5 μM. The protocol:
as §1

Series [6] deals with IL-1β relative to lipoxin A4. As to the kind of experiment: Experiment A: IL-1β and lipoxin A4 secreted by macrophages from treated diabetic rats. The series is classed as in vivo, rat. The conditions noted are these: 30 mg/kg oral once per day for 21 days, compared to untreated diabetics. The procedure: In an in vivo experiment, three groups of adult male rats were established including non-diabetic controls (NDC group; n=6 rats/group); rats that were made diabetic and severely hyperglycemic by STZ injection (D+vehicle group; n=6 rats/group), and a 3rd group of rats (n=6 rats/group) in which the diabetics were orally administered CMC2.24 (30 mg/kg body weight) once per day for 21 days. At the end of the protocol, the rats were sacrificed and the peritoneal cells were collected by washing with cold 15 ml phosphate buffered saline/EDTA, The macrophages were harvested from the peritoneal wash from each rat, after 2 hours of adherence to culture plates (sterile conditions), the cells were counted and then incubated for 18 h at 37° C. in an atmosphere of 95% air/5% CO2. The conditioned media was then collected and analyzed for the resolvin, lipoxin A4, and for two inflammatory cytokines, IL-1β and IL-6. The data is expressed as a ratio of […] (pg/ml) relative to resolvin (ng/ml) secreted by the macrophages from the three experimental groups (FIG. 45A).

The next series deals with Lipoxin A4. Put plainly: Lipoxin A4 ELISA in macrophage conditioned media, CFE and serum of diabetic rats. The series is classed as in vivo, rat. The conditions noted are these: STZ-diabetic rats, 30 mg/kg oral once per day for 3 weeks. The protocol: (§2) Adult rats were made diabetic by I.V. injection of streptozotocin; non-diabetic rats served as controls (n=6 rats per group; all groups). Half of the diabetics (blood glucose >500 mg/dl) were orally administered CMC2.24 (30 mg/kg) once per day for 3 weeks; untreated diabetics (D) and N rats received vehicle alone. PEs were collected at time=0 (ie, before thioglycollate injection into peritoneal cavity). Resident macrophages were isolated from PEs, then incubated in cell culture for 13 hours (370 C; 95% air/5% CO2 atmosphere). Lipoxin A4 levels were measured by ELISA (a) in cell culture serum-free conditioned media; (b) in the cell-free exudates (CFEs); and (c) in serum.
(In general: An ELISA detects its analyte on a solid surface through an enzyme-linked reagent.)

Series [7] concerns primary alveolar macrophages. As to the kind of experiment: Cell viability by CCK-8 assay in primary alveolar macrophages. The series is classed as cell-based. Conditions: 1 to 80 μM, 24 h. The procedure: (§3) Human lung epithelial cell line (A549) and primary alveolar macrophage cell culture: Human lung epithelial cell line (A549, ATCC #CCL-185) was purchased from ATCC (Manassas, Va.); and primary alveolar macrophages were prepared from healthy adult animals (swine). A549 cells and primary alveolar macrophages were cultured in RPMI Media 1640 medium supplemented with 10% (v/v) FBS, 1% (v/v) L-glutamine (200 mM) and 1% (v/v) Antibiotic-Antimycotic antibiotics at 37° C. in a humidified 5% CO2 incubator.
(§4) CMC 2.24 treatment and PM2.5 exposure: The cells were subcultured when cells were grown to about 70% confluency. […]
(§5) Analysis of cell viability by CCK-8 assay: In order to study the effect of CMC2.24 in A549 cells and primary alveolar macrophages after PM2.5 exposure, cell viability was determined using Cell Counting Kit (CCK)-8 kit (Sigma-Aldrich, MO, USA) according to the manufacturer's instructions, A549 cells (0.5×10^4/well) and primary macrophages (1×10^4/well) were cultured in 96-well plates for 24 h and 6 h, respectively; the cells were then exposed to various concentrations of CMC 2.24 (i.e. 0, 1, 5, 10, 20, 30, 40, and 80 μM of CMC 2.24) in the presence or absence of 100 μg/ml PM2.5 in the media for 24 h. […] Then optical density value was measured at 450 nm using a microplate reader (Multiskan Ascent, Thermo Lab systems). […]
A general note: Tetrazolium dyes change colour on reduction, which living cells bring about.

For series [8] the following is noted: cell and tissue culture, in vivo studies; cited from earlier work.
The test system of the next series is Lipoxin B4. As to the kind of experiment: Lipoxin B4 ELISA in macrophage conditioned media, CFE and serum of diabetic rats. It is filed as in vivo, rat. The conditions noted are these: STZ-diabetic rats, 30 mg/kg oral once per day for 3 weeks. The procedure: as §2, with “18” for “13”, “B4” for “A4”
For series [9], the system named is elastase/LPS-treated COPD mice. Put plainly: Morphometry: mean linear intercept (chord length) in COPD mice. The conditions noted are these: oral gavage for seven days, control 33, COPD 54. The series is classed as in vivo, mouse. The protocol:
Elastase and LPS exposure: A total of 180 male and 180 female WT mice (8-12 weeks old) were used for all experiments. Experiments were performed in triplicate for each group of age- and gender-matched mice. Animals were exposed by the intranasal route to 10 μl saline containing 1.2 units of porcine pancreatic elastase (Elastin Products, Owensville, Mo.) on Tuesday and 10 μl saline containing 7 μg (−70 endotoxin units) of LPS from Escherichia coli O26:B6 (Sigma-Aldrich, St. Louis, Mo.) on Friday of each week for four consecutive weeks.
3 mg of CMC2.24 powder were dissolved in 1 mL suspension of 2% Carboxymethyl cellulose vehicle for the daily oral administration of CMC2.24 (40 mg/kg). Vehicle alone was administered to the control group. Both CMC2.24 and vehicle control were administered once daily over the 7-day protocol by gavage (Zhang, Y. et al. 2010; Elburki, M. S. et al. 2014).
Morphometry—Air Space Enlargement: In an effort to quantitate alveolar air space enlargement, the Mean Linear Intercept (MLI) was implemented. […] Afterwards, seven equally spaced lines were then drawn within the guard zone, and directly measured by manual use of a ruler. Starting from the left, the line was scanned for any intersections with the alveolar walls and measured until the following intersection with the alveolar surface on the right. […]

Series [10] relates to Human lung epithelial cell line (A549). As to the kind of experiment: Cell viability by CCK-8 assay in A549 cells. It is filed as cell-based. Conditions: 1 to 80 μM, 24 h. The procedure: as §3, §4, §5

As to `O=C(/C=C/c1ccc(O)cc1)C(C(=O)/C=C/c1ccc(O)cc1)C(=O)Nc1ccccc1` [CMC2.24], the mortality rate in [1] (infected SP-B-C mice, control 76%, p<0.05) is reported as 50%; in [1] (infected SP-B-T mice, control 33%), 32%. Also, the “solubility relative to curcumin” value in series [2] is “improved solubility”. Besides, the “reduction of IL-1β/lipoxin A4 ratio” value in series [3] is given as 93.8%. Also, the “toxicity on oral gavage” value in [4] is listed as “no evidence of toxicity”. Also, the “solubility relative to CMC2.5” value in “Solubility” was “improved solubility”. Besides, the “reduction of IL-6/lipoxin A4 ratio” value in [5] is 86%. For the same molecule, in series [6], the “reduction of ratio IL-1β relative to lipoxin A4 secreted by macrophages” value is 85.3%. Moreover, the “increase of Lipoxin A4 in rat serum” value in the series with Lipoxin A4 came out at 15.5%. For the same molecule, in the series on Lipoxin A4, the “increase of Lipoxin A4 in resident peritoneal cell-free exudates” value came out at 80.6%. In addition, the “increase of Lipoxin A4 secretion by resident peritoneal macrophages” value in the series on Lipoxin A4 (vs untreated diabetics) worked out at 12.7%. The “cell viability (CCK-8), compound alone” value in [7] and in series [10] was “did not influence cell viability” throughout. The “toxicity compared to the parent compound” value in series [8] is given as “even less toxicity”. Moreover, the “increase of Lipoxin B4 secretion by resident peritoneal macrophages” value in the series with Lipoxin B4 is 12.7%. In series [9], this molecule yielded an average chord length (mean linear intercept) of 35 µm.
